Laboratory results taken from patent publication US20250102527A1, “METHOD AND DEVICE FOR DETERMINING THE VITAMIN STATUS” (TECHNISCHE UNIVERSITÄT MÜNCHEN, priority 2022, published 2025).
“Also recorded” adds a separate entry of the source.

How the values were obtained:
[1] = target: T1, recombinant human PLP binding protein (PLPBP, UniProt 094903) (Homo sapiens, UniProt O94903); experiment: Gel-based labeling of recombinant PLPBP with PLxP probes (fluorescence SDS-PAGE); details: for labeling of recombinant PLPBP by PLP cofactor mimic: 1 μM PLPBP, 100 μM probe, 1 h r.t., NaBH4 reduction, click to Cy5, fluorescence SDS-Page
T1 construct: made in house; host or cells: E. coli Rosetta2 (DE3)
Procedure: Conditions: 1 μM PLPBP, 100 μM probe (incubation 1 h, r.t.), reduction (NaBH4), precipitation (Aceton), wash (MeOH), redissolve in PBS+0.2% SDS, click to Cy5. Analysis via fluorescence SDS-Page.
Structures of the different PLP probes PL1P, PL2P and PL13P (top) that were tested for their labeling efficiency of recombinant PLP binding protein (PLPBP), separately and all three in combination on a fluorescent SDS gel (bottom). The denaturation of PLPBP via increased temperature (heat control, h.c.) prior to labeling with the combination of probes served as negative control. FM=fluorescent marker.
In brief, PLPBP (1 μM in PBS, total volume: 50 μL) was labeled with PLxP probe or mixture of PLxP probes (PL1P, PL2P, PL13P, final conc. 100 μM) at room temperature for 30 min. Upon reduction with […] NaBH4 (1 μl of 250 mM prepared fresh in 0.1 M NaOH) at room temperature for 30 min, proteins were precipitated by adding ice-cold acetone (4× volume) and incubating at −20° C. for at least 1 h. Precipitated proteins were pelletized by centrifugation (18,000×g, 15 min, 4° C.) and washed two times with ice-cold MeOH. For washing, protein pellet is resuspended in 0.2 mL cold methanol (−80° C.) by mild sonication (10 s, 10% intensity) and centrifuged (10 000 rpm, 10 min, 4° C.). Pelletized proteins were resuspended in 50 μl PBS containing […] SDS and Click chemistry was performed by adding 100 μM Cy5 azide (1 μL of 5 mM in DMSO), 100 μM TBTA (3 μL of 1.67 mM in/BuOH/DMSO 80:20), 1 mM TCEP (0.5 μL of 15 mg/mL stock in ddH2O) and 1 mM CuSO4 (1 μL of 50 mM stock in ddH2O) to each sample and incubated for at least 1 h at r.t. Samples were quenched with 2× Lämmli buffer and analysed by SDS-PAGE (12.5% polyacrylamide gels) with subsequent fluorescence scanning.
For this, we selected recombinant human PLP binding protein (PLPBP, UniProt 094903) as a medium abundant model PLP-DE of human erythrocytes.
Conditions: 1 μM PLPBP, 100 μM probe (incubation 1 h, r.t.), reduction (NaBH4), precipitation (aceton), wash (MeOH), redissolve in PBS+0.2% SDS, click to Cy5. Analysis via fluorescence SDS-Page. Results see FIG. 6.

recombinant SHMT1 = target: T2, recombinant SHMT1 (Homo sapiens, UniProt P34896); experiment: Microarray readout of PL2P probe signal on recombinant SHMT1 preincubated with PLP; assay type: binding; details: apoSHMT1 preincubated with 0.5-4.0 eq PLP, fixed with NaBH4, 100 μM PL2P, click to rhodamine azide
T2 construct: made in house; host or cells: E. coli Rosetta2 (DE3)
T2 sequence (P34896 1-483): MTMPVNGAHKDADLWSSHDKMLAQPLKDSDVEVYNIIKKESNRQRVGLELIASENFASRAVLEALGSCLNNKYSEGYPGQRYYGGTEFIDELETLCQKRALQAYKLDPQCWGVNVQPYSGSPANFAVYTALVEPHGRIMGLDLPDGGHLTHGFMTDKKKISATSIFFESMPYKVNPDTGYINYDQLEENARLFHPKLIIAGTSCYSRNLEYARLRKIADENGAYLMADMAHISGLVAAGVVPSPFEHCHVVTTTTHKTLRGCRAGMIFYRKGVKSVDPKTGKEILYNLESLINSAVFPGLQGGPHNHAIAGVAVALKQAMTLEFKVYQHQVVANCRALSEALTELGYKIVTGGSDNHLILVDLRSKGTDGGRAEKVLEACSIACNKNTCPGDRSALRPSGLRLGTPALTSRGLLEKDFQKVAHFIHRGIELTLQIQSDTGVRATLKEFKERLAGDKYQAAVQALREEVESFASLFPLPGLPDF
Procedure: FIG. 11. Signal intensity is dependent on saturation level of PLP-DE with PLP. • (A) PLP loading states of recombinant SHMT1 incubated with increasing equivalents (eq) of PLP were determined by intact protein-MS (n=3) as described previously (Hoegl et al., 2018). • (B) Microarray read out of recombinant SHMT1 bound PL2P probe signals preincubated with PLP equivalents in a physiological range of 0.5-4.0 eq. Mean signal intensities of anti-SHMT1 (n=8) corrected to BSA control and error bars (SD) after fluorescent readout of anti-SHMT1 3. Sample preparation according to workflow 3, as described in the Examples.
40 μM apoSHMT1 (25 μL) samples were incubated with increasing amounts of PLP (0 eq., 0.50 eq., 1.00 eq., 4.00 eq., 32.0 eq.) for 1 h at r.t. and subsequently treated with 20 mM NaBH4 (250 mM stock solution in 0.1 M NaOH) for 30 min at r.t. Reduction was quenched by adding cold acetone (4× volume of sample, −20° C.) for at least 1 h. Precipitated proteins were pelletized (10 000 rpm, 15 min, 4° C.) and supernatant was discarded. […] Samples are subsequently incubated and analysed on the microarrays. […]
The samples were analysed in a single colour approach (without secondary antibody incubation) or dual-colour approach (with secondary antibody incubation) using custom microarrays containing antibodies against OAT, SHMT and PLPBP or a subset of these antibodies. […]

T1 sequence (O94903 whole entry): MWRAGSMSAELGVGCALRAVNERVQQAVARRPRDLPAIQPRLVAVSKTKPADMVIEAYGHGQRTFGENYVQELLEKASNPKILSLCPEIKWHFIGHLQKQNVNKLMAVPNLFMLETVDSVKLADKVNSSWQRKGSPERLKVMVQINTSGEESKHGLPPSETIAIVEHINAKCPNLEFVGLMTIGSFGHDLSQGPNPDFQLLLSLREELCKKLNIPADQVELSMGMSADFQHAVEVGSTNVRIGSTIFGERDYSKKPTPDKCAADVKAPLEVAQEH

Molecule	labeling of recombinant PLPBP by PLP cofactor mimic [1]	PL2P probe signal intensity on microarray with increasing PLP saturation of SHMT1 (recombinant SHMT1)	most suitable PLP cofactor mimic for labeling of recombinant PLPBP ([1]; comparison of PL1P, PL2P, PL13P via SDS-Page)
C#Cc1ncc(COP(=O)(O)O)c(C=O)c1O [PL1P, (6-ethynyl-4-formyl-5-hydroxypyridin-3-yl)methyl phosphate]	successfully tested		
Cc1ncc(COP(=O)(O)O)c(C=O)c1O [PLP, pyridoxal phosphate]		decrease in signal intensity; also recorded: decline in signal intensity	
(4-formyl-6-methyl-5-(prop-2-yn-1-yloxy)pyridin-3-yl)methyl phosphate [PL13P]	successfully tested		
(6-(but-3-yn-1-yl)-4-formyl-5-hydroxypyridin-3-yl)methyl phosphate [PL2P]	successfully tested		most suitable
